Data taken from patent US11091437B2, “Aryl isonitriles as a new class of antimicrobial compounds” (Purdue Research Foundation, priority 2015, dated 2021).
Values after ≈ are worked out from the molar mass of the structure shown. Like-named read-outs stand apart in the source and are kept apart here. Values belong to the molecule of their own block, whether it stands above or below them.

Experiments:
[1] = tested on: MRSA USA300; experiment: whole-cell screening of in house small molecules; assay type: cell-based, Staphylococcus aureus; details: MRSA USA300, whole-cell screening hit
Text: A whole-cell screening of a small number of in house generated small molecules with diverse structural skeletons (about 250 molecules) has been conducted against MRSA USA300 with the aim to identify compounds with novel skeletons to target antibiotic drug resistance. […] Marconi, G. G. et al., J. Antibiot, 1978, 31, 27-32; Mo, S. et al., J. Nat. Prod. 2009, 72, 894-899; Raveh, A. et al., J. Nat. Prod. 2007, 70, 196-201; Sugawara, T. et al., J. Antibiot, 1997, 50, 944-948; Fujiwara, A. et al., Agric. Biol. Chem. 1982, 46, 1803-1809, Marquez, J. A. et al., J. Antibiot, 1983, 36, 1101-1108. The novel structural skeleton of compound 1 as an antibacterial compound against drug resistant strains prompted further study of these types of isonitrile compounds. Herein is reported the chemical synthesis, structure-activity relationship study, and evaluation of the antibacterial performance of compound 1 and closely related analogs against several clinically-relevant MRSA and VRSA strains.

[2] = tested on: MRSA; experiment: MIC by broth microdilution against MRSA, VISA and VRSA strains; assay type: cell-based, Staphylococcus aureus; details: for antimicrobial activity (in words): MRSA strains tested
Protocol: The bacterial growth inhibiting activity of these synthetic analogs of hit compound 1 were subsequently evaluated (FIG. 3).
The minimum inhibitory concentration (MIC) of each compound and linezolid was determined against eight different strains of MRSA, VISA, and VRSA using a modified version of the broth microdilution method, outlined by the CLSI. Institute CaLS, Methods for Dilution Antimicrobial Susceptibility Tests for Bacteria That Grow Aerobically—Seventh Edition: Approved Standard M7-A7. 7 ed. Wayne, Pa. 2011. The same analysis was performed with vancomycin against the VISA and VRSA strains tested. A bacterial suspension (˜1 Å˜10^5 CFU/mL) was prepared in Tryptic soy broth (TSB) and then transferred to a microtiter plate. Each agent tested was added (in triplicate) to wells in the first row of the plate and then serially diluted downward.

[3] = tested on: S. aureus exhibiting resistance to vancomycin (VRS2); experiment: MIC by broth microdilution against vancomycin-resistant S. aureus; assay type: cell-based; details: Staphylococcus aureus; vancomycin-resistant clinical isolate VRS2
[4] = tested on: murine macrophage (J774) cell line; experiment: MTS toxicity assay against mammalian cells
[5] = tested on: Caco-2 cell monolayer; details: human
[6] = human, microsomes, 1 h
[7] = physchem; details: aqueous buffer, kinetic from dmso stock
[8] = in vitro; details: human, Caco-2
[9] = Staphylococcus aureus, broth microdilution, over the MRSA strains tested, read-out: MIC against MRSA

MIC [2, 9]: 8 to 64 µM (≈ 1.87 to 14.9 µg/mL)
Structure (SMILES): [C-]#[N+]c1ccccc1/C=C(\CC)c1ccccc1 [Compound 1, (E)-1-isocyano-2-(2-phenylbut-1-en-1-yl)benzene]
concentration inhibiting bacterial growth [1]: 32 µM

Structure (SMILES): [C-]#[N+]c1ccccc1CP(=O)(OCC)OCC [Compound 4a, diethyl (2-isocyanobenzyl)phosphonate]
MIC ([2]; broth microdilution, over the MRSA strains tested, read-out: MIC against MRSA): > 128 µM

MIC [3]: 2 to 16 µM (≈ 0.603 to 4.82 µg/mL)
Structure (SMILES): [C-]#[N+]c1ccccc1/C=C(\CC)c1ccc(C(F)(F)F)cc1 [Compound 10, (E)-1-isocyano-2-(2-(4-(trifluoromethyl)phenyl)but-1-en-1-yl)benzene]

Structure (SMILES): [C-]#[N+]c1ccccc1/C=C(\CC)c1cccc(C(F)(F)F)c1 [Compound 12]
toxicity to J774 cells at 64 μM [4]: toxic

MIC [2, 9]: ≥ 2 µM
reduction in the MIC against MRSA relative to compound 1 ([2]; removal of the ethyl group of 1): two-to-eight
apparent permeability Papp, apical (A) to basolateral (B) [5]: 0.0 cm/sec
apparent permeability Papp, basolateral to apical [5]: 0.0 cm/sec
parent compound remaining after one hour [6]: 24%
parent compound remaining after one hour, NADPH not present [6]: 51%
solubility [7]: 1 to 100 µM (≈ 0.205 to 20.5 µg/mL)
Structure (SMILES): [C-]#[N+]c1ccccc1/C=C/c1ccccc1 [Compound 13, (E)-1-isocyano-2-styrylbenzene]
concentration up to which not toxic to mammalian cells ([4]; J774 cells): 64 µM

Structure (SMILES): [C-]#[N+]c1ccccc1/C=C/c1cccc(OC)c1 [Compound 15, (E)-1-isocyano-2-(3-methoxystyryl)benzene]
toxicity to J774 cells at 128 μM [4]: not toxic

Structure (SMILES): [C-]#[N+]c1ccccc1/C=C/c1cccc(F)c1 [Compound 19, (E)-1-(3-fluorostyryl)-2-isocyanobenzene]
toxicity to J774 cells at 64 μM [4]: toxic

MIC [2, 9]: 4 to 64 µM (≈ 0.877 to 14 µg/mL)
Structure (SMILES): [C-]#[N+]c1ccccc1/C=C/c1ccc(C)cc1 [Compound 23, (E)-1-isocyano-2-(4-methylstyryl)benzene]

MIC ([2]; Staphylococcus aureus, MRSA, read-out: MIC against most MRSA strains tested): > 128 µM
Structure (SMILES): [C-]#[N+]c1ccccc1/C=C/c1ccc(CCCC)cc1 [Compound 24, (E)-1-(4-butylstyryl)-2-isocyanobenzene]

MIC [3]: 2 to 16 µM (≈ 0.501 to 4 µg/mL)
Structure (SMILES): [C-]#[N+]c1ccccc1/C=C/c1ccc([N+](=O)[O-])cc1 [Compound 25, (E)-1-isocyano-2-(4-nitrostyryl)benzene]
toxicity to J774 cells at 32 μM ([4]; 32 μM): toxic
toxicity to J774 cells at 64 μM [4]: toxic

Structure (SMILES): [C-]#[N+]c1ccccc1C=C1CCCCC1 [Compound 26, 1-(cyclohexylidenemethyl)-2-isocyanobenzene]
activity against MRSA USA300, MRSA USA500 and MRSA NRS119 ([2]; strains USA300, USA500, NRS119): inactive

Structure (SMILES): [C-]#[N+]c1ccccc1/C=C/c1ccccn1 [Compound 27, (E)-2-(2-isocyanostyryl)pyridine]
antimicrobial activity (in words) ([2]; broth microdilution): reduced antimicrobial activities

Structure (SMILES): [C-]#[N+]c1ccccc1/C=C/c1cccnc1 [Compound 30, (E)-3-(2-isocyanostyryl)pyridine]
antimicrobial activity (in words) ([2]; broth microdilution): reduced antimicrobial activities
toxicity to J774 cells at 128 μM [4]: not toxic

MIC [3]: 2 to 16 µM (≈ 0.412 to 3.3 µg/mL)
Structure (SMILES): [C-]#[N+]c1ccc(/C=C/c2cccnc2)cc1 [Compound 32, (E)-3-(4-isocyanostyryl)pyridine]

Structure (SMILES): [C-]#[N+]c1ccccc1/C=C/c1ccncc1 [Compound 33, (E)-4-(2-isocyanostyryl)pyridine]
antimicrobial activity (in words) ([2]; broth microdilution): reduced antimicrobial activities

MIC [3]: 2 to 16 µM (≈ 0.412 to 3.3 µg/mL)
Structure (SMILES): [C-]#[N+]c1ccc(/C=C/c2ccncc2)cc1 [Compound 35, (E)-4-(4-isocyanostyryl)pyridine]
activity relative to ortho- and meta-substituted 33 and 34 ([2]; all the strains tested): much more active

Structure (SMILES): [C-]#[N+]c1ccc(/C=C/c2ccccc2)cc1 [Compound 37, (E)-1-isocyano-4-styrylbenzene]
activity relative to ortho-substituted compound 13 ([2]; MSSA (NRS72) and MRSA USA500): slight improvement
toxicity to J774 cells at 128 μM [4]: not toxic

Structure (SMILES): [C-]#[N+]c1ccc(C)cc1-c1ccc(C(F)(F)F)cc1 [Compound 50, 2-isocyano-5-methyl-4′(trifluoromethyl)-1,1′-biphenyl]
antimicrobial activity (in words) ([2]; broth microdilution): loss in antimicrobial activity

Structure (SMILES): [C-]#[N+]c1ccccc1CCc1ccccc1 [Compound 53, 1-isocyano-2-phenethylbenzene]
potency relative to compound 13 ([2]; all strains tested except VISA NRS1): less potent
activity against MRSA USA100, MRSA USA300, MRSA NRS119 and VISA NRS1 ([2]; strains USA100, USA300, NRS119, VISA NRS1): active

Papp B→A [8]: 27 ×10⁻⁶ cm/s
Structure (SMILES): CC(=O)CC(c1ccccc1)c1c(O)c2ccccc2oc1=O (stereo not shown) [warfarin]
